Results from patent US20070179154A1, “Coumarin derivatives, process for their production and use thereof” (Takeda Pharmaceutical Company Limited, priority 2002, published 2007).

Legend:
[1] = biological target: T1, mouse abdominal macrophage microsome ACAT (Mus musculus, UniProt Q61263); assay: ACAT inhibitory activity (mouse abdominal macrophage microsome ACAT); format: biochemical; settings: microsome ACAT from thioglycolate-stimulated C57BL6J mouse abdominal macrophage; 3H-oleyl-CoA, 37° C. for 20 minutes; read-out: Enzyme inhibition (IC50)
T1 construct: from tissue; host or cells: microsomes of thioglycolate-elicited peritoneal (abdominal) macrophages of C57BL6J mice, cultured 24 h with rabbit beta-VLDL
T1 sequence (Q61263 1-540): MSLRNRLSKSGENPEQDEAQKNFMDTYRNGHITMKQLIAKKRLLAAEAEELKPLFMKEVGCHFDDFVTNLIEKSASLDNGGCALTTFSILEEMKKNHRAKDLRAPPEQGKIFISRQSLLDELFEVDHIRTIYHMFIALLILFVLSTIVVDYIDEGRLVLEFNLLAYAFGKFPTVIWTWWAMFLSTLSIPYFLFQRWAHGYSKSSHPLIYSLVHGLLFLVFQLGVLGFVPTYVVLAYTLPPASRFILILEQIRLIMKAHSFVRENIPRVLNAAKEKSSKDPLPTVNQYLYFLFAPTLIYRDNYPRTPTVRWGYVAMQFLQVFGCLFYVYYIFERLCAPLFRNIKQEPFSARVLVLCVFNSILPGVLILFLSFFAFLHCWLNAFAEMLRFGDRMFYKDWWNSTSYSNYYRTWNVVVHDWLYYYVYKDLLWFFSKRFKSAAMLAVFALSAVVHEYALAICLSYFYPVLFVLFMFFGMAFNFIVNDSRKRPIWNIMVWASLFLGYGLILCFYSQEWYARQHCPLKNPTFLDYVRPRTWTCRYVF
Experimental: [Preparation of Mouse Abdominal Macrophage Microsome ACAT]
According to the method of Hakamada et al. (Experimental Medicine Suppliment vol. 14, No. 12, Circulation Research Protocol, p, 49-52, 1996), an abdominal macrophage was taken from a thioglycolate-stimulated C57BL6J mouse and cultured for 24 hours in a RPMI 1640-25 mM HEPES (pH7.0) medium containing rabbit β-very low density lipoprotein (β-VLDL, 150 μg cholesterol/ml) which had been prepared by the method of Ishii et al. (Ishii I et al., Arterioscler, Thromb, 12, 1139-1145, 1992). The abdominal macrophage was then collected by centrifugation (4° C., 1.000 rpm, 5 minutes) and sonicated. The sonicated liquid was centrifuged (4° C., 5000 rpm, 15 minutes) and then ultracentrifuged (4° C., 50, 000 rpm, 90 minutes) to prepare a microsome. The microsome thus obtained was used for measuring ACAT inhibitory activity of a test compound as mouse abdominal macrophage microsome ACAT.
[Method for Measuring ACAT Inhibitory Activity]
A mixture of a test compound, cholesterol-albumin-containing-Tris-HCL buffer (pH 7.5) and mouse abdominal macrophage microsome ACAT was pre-incubated at 37° C. for 10 minutes, and ^3H-oleyl-CoA was added to react at 37° C. for 20 minutes. A stopping solution composed of chloroform-methyl alcohol-distilled water (2:2:1 v/v) was added, and produced cholesteryl ester (CE) was extracted with shaking. The extract was subjected to silica gel thin chromatography (petroleum ether:diethyl ether:acetic acid=9:1:0.1 v/v), and the resulting ^3H-CE fraction was measured with a scintillation counter.
ACAT inhibiting rate was calculated from the proportion based on ACAT activity without a test compound, and an IC50 value was calculated as the concentration (μM) of a test compound showing ACAT inhibiting rate 50%. The results are shown in [Table 15].

Row | SMILES | melting point | IC50 [1]
1 | O=C(Cc1c(-c2cccc(C(=O)O)c2)c2cc(CN3CCN(c4ccccc4)CC3)c(Cl)cc2oc1=O)Nc1ccc(F)cc1C(F)(F)F [Example 112, 3-{7-chloro-3-(2-{[4-fluoro-2-(trifluoromethyl)phenyl]amino}-2-oxoethyl)-2-oxo-6-[(4-phenylpiperazin-1-yl)methyl]-2H-chromen-4-yl}benzoic acid] | 149 to 151 °C | 540 nM
2 | O=C(O)/C=C/c1cccc(-c2c(CC(=O)Nc3ccc(F)cc3C(F)(F)F)c(=O)oc3cc(Cl)c(CN4CCN(c5ccccc5)CC4)cc23)c1 [Example 110, (2E)-3-(3-{7-chloro-3-(2-{[4-fluoro-2-(trifluoromethyl)phenyl]amino}-2-oxoethyl)-2-oxo-6-[(4-phenylpiperazin-1-yl)methyl]-2H-chromen-4-yl}phenyl)acrylic acid] | 238 to 240 °C | 540 nM
3 | Cc1cc2c(-c3cccc(CCCC(=O)O)c3)c(CC(=O)Nc3ccc(F)cc3C(F)(F)F)c(=O)oc2cc1Cl [Example 78] |  | 430 nM
4 | O=C(O)/C=C/c1cccc(-c2c(CC(=O)Nc3ccc(Cl)cc3C(F)(F)F)c(=O)oc3cc(Cl)c(CN4CCN(c5ccccc5)CC4)cc23)c1 [Example 111, (2E)-3-(3-{7-chloro-3-(2-{[4-chloro-2-(trifluoromethyl)phenyl]amino}-2-oxoethyl)-2-oxo-6-[(4-phenylpiperazin-1-yl)methyl]-2H-chromen-4-yl}phenyl)acrylic acid] | 239 to 241 °C | 610 nM

Continued, values first:

Row | melting point | IC50 [1] | SMILES
5 | 151 to 153 °C | 1220 nM | O=C(Cc1c(-c2cccc(C(=O)O)c2)c2cc(CN3CCN(c4ccccc4)CC3)c(Cl)cc2oc1=O)Nc1ccc(Cl)cc1C(F)(F)F [Example 113, 3-{7-chloro-3-(2-{[4-chloro-2-(trifluoromethyl)phenyl]amino}-2-oxoethyl)-2-oxo-6-[(4-phenylpiperazin-1-yl)methyl]-2H-chromen-4-yl}benzoic acid]
6 | 226 to 228 °C | 550 nM | O=C(O)CCc1cccc(-c2c(CC(=O)Nc3ccc(F)cc3C(F)(F)F)c(=O)oc3cc(Cl)c(CN4CCN(c5ccccc5)CC4)cc23)c1 [Example 114]
7 | 207 to 209 °C | 420 nM | O=C(O)CCc1cccc(-c2c(CC(=O)Nc3ccc(Cl)cc3C(F)(F)F)c(=O)oc3cc(Cl)c(CN4CCN(c5ccccc5)CC4)cc23)c1 [Example 115]
